The subject of data set [1] is P. falciparum K1 (PfK1) strain. Briefly: In vitro antiplasmodial asexual blood stage activity, pLDH assay, K1. The data set is classed as cell-based. The following applies: Plasmodium falciparum.
Data set [2] has as its system Chinese hamster ovary cells. Briefly: Cytotoxicity, MTT assay, CHO. The data set is classed as cell-based. Conditions: Cricetulus griseus, read-out: CHO IC50.
For data set [3], the system named is P. falciparum NF54 (PfNF54) parasites. Kind of data set: In vitro antiplasmodial asexual blood stage activity, pLDH assay, NF54. The data set is classed as cell-based, Plasmodium falciparum.
A short description of the next data set: physchem. Conditions: 25 °C, pH 6.5, aqueous buffer, thermodynamic from solid.
The mark [4] stands for this setting: K1, 72 h, read-out: Pf ABS IC50 K1.
Setting [5] is: Plasmodium falciparum, NF54, 72 h, read-out: Pf ABS IC50 NF54.
[6] abbreviates: Plasmodium falciparum, NF54, read-out: PfNF54 IC50.
Setting [7] is: Plasmodium falciparum, NF54, 72 h, pLDH assay, 72 h, read-out: Pf ABS IC50 NF54.
Where [8] appears, read: Plasmodium falciparum, NF54, mean, supplement, read-out: PfNF54 IC50.
[9] abbreviates: K1, mean, supplement, read-out: PfK1 IC50.
Setting [10] is: K1, pLDH assay, 72 h, read-out: Pf ABS IC50 K1.

Consider 23 compounds from PMC12557380, “Optimization of 2,8-Diaryl-1,5-naphthyridines as Plasmodium falciparum Phosphatidylinositol 4‑Kinase Inhibitors with Improved ADME Profiles and In Vivo Efficacy” (Journal of Medicinal Chemistry, 2025).

In brackets after ≈: the same amount, converted by molar mass. Where two headings read alike, the source gives them in different places.

`CC(C)(O)C(=O)N1CC=C(c2ccc3nccc(-c4ccnc(C(F)(F)F)c4)c3n2)CC1` [Compound 17, 2-Hydroxy-2-methyl-1-[4-[8-[2-(trifluoromethyl)pyridin-4-yl]-1,5-naphthyridin-2-yl]-3,6-dihydro-2H-pyridin-1-yl]propan-1-one]: the IC50 in data set [1] (setting [4]) is 460 nM; in data set [1] (K1, read-out: PfK1 IC50), 463 nM; in data set [2], greater than 50000 nM; in data set [3] (setting [5]), 140 nM; in data set [3] (setting [6]), 144 nM.

As to `Cn1cc(-c2ccc3nccc(-c4cccc(S(C)(=O)=O)c4)c3n2)ccc1=O` [Compound 20, 1-Methyl-5-[8-(3-methylsulfonylphenyl)-1,5-naphthyridin-2-yl]pyridin-2-one], the IC50 turned out to be 34000 nM in data set [2], 410 nM in data set [3] (setting [5]) and 411 nM in data set [3] (setting [6]).

On to `CCN(CC)CCCC(C)Nc1ccnc2cc(Cl)ccc12` (stereo not drawn) [Chloroquine, reference compound], for which the IC50 in data set [3] (Plasmodium falciparum, NF54, 72 h, read-out: PfNF54 IC50) was 11 nM.

For `C[S+]([O-])c1cccc(-c2ccc3nccc(-c4ccnc(C(F)(F)F)c4)c3n2)c1` (stereo not drawn) [Compound 11, 2-(3-Methylsulfinylphenyl)-8-[2-(trifluoromethyl)pyridin-4-yl]-1,5-naphthyridine], the values for the IC50 in data set [2], in data set [3] (setting [5]) and in data set [3] (setting [6]) were 14000 nM, 42 nM and 42.5 nM, respectively.

Consider `CS(=O)(=O)c1cccc(-c2ccc3nccc(-c4ccc(C(=O)N5CC[C@H](N)C5)cc4)c3n2)c1` [Compound 38, [(3S)-3-Aminopyrrolidin-1-yl]-[4-[6-(3-methylsulfonylphenyl)-1,5-naphthyridin-4-yl]phenyl]methanone], for which the IC50 in data set [2] (one biological replicate) is 28000 nM; in data set [3] (setting [7]), 48 nM; in data set [3] (setting [8]), 48.6 nM. In the data set “physchem” (aqueous solution), this compound came in with a solubility (thermodynamic) at 20 h of 180 µM (≈ 85.1 µg/mL).

Turning to `Cn1ccc(-c2ccc3nccc(-c4ccnc(C(C)(C)O)c4)c3n2)cc1=O` [Compound 23, 4-[8-[2-(2-Hydroxypropan-2-yl)pyridin-4-yl]-1,5-naphthyridin-2-yl]-1-methylpyridin-2-one], the IC50 in data set [1] (setting [4]) was 280 nM; in data set [1] (K1, read-out: PfK1 IC50) it was 277 nM; in data set [2], greater than 50000 nM; in data set [3] (setting [5]), 140 nM; in data set [3] (setting [6]) it was 144 nM.

As for `CC(C)(O)c1cccc(-c2ccc3nccc(-c4ccc(C(C)(C)O)nc4)c3n2)c1` [Compound 30, 2-[3-[8-[6-(2-Hydroxypropan-2-yl)pyridin-3-yl]-1,5-naphthyridin-2-yl]phenyl]propan-2-ol], the IC50 is 34.5 nM in data set [1] (setting [9]); 34 nM in data set [1] (setting [10]); 3000 nM in data set [2] (one biological replicate); 100 nM in data set [3] (setting [7]); 105 nM in data set [3] (setting [8]). Moreover, the solubility (thermodynamic) at 20 h in “physchem” (aqueous solution) was found to be 55 µM (≈ 22 µg/mL).

For the compound `CC(C)(O)c1ccc(-c2ccnc3ccc(-c4ccc(C(F)(F)F)nc4)nc23)cn1` [Compound 32, 2-[5-[6-[6-(Trifluoromethyl)pyridin-3-yl]-1,5-naphthyridin-4-yl]pyridin-2-yl]propan-2-ol], the IC50 turned out to be 210 nM in data set [3] (setting [7]) and 207 nM in data set [3] (setting [8]). Moreover, in “physchem” (aqueous solution), the thermodynamic solubility at 20 h is less than 5 µM.

For the compound `CS(=O)(=O)c1cccc(-c2ccc3nccc(-c4cccc(S(C)(=O)=O)c4)c3n2)c1` [Compound 18, 2,8-Bis(3-methylsulfonylphenyl)-1,5-naphthyridine], the IC50 in data set [2] (one biological replicate) was determined as 37000 nM; in data set [3] (setting [7]) it was 16 nM; in data set [3] (setting [8]) it was 17.2 nM; in data set [3] (pLDH assay, 72 h, read-out: Pf ABS IC50 NF54), 17 nM. In the data set “physchem”, the solubility (thermodynamic) at 20 h is less than 5 µM.

Turning to `O=c1cc(-c2ccc3nccc(-c4ccnc(C(F)(F)F)c4)c3n2)ccn1CCO` [Compound 14, 1-(2-Hydroxyethyl)-4-[8-[2-(trifluoromethyl)pyridin-4-yl]-1,5-naphthyridin-2-yl]pyridin-2-one], the IC50 came out at 340 nM in data set [1] (setting [4]); 344 nM in data set [1] (K1, read-out: PfK1 IC50); 131 nM in data set [3] (setting [6]).

Consider `Cn1ccc(-c2ccnc3ccc(-c4cccc(S(C)(=O)=O)c4)nc23)cc1=O` [Compound 34, 1-Methyl-4-[6-(3-methylsulfonylphenyl)-1,5-naphthyridin-4-yl]pyridin-2-one], for which the concentration for half-maximal inhibition (IC50) in data set [1] (setting [4]) was 340 nM; in data set [1] (K1, read-out: PfK1 IC50), 338 nM; in data set [2] it was 44000 nM; in data set [3] (setting [6]), 173 nM. This compound had a thermodynamic solubility at 20 h in the data set “physchem” (aqueous solution) of 175 µM (≈ 68.5 µg/mL).

`CC(C)(O)c1ccc(-c2ccnc3ccc(-c4cccc(CC(N)=O)c4)nc23)cn1` [Compound 26, 2-[3-[8-[6-(2-Hydroxypropan-2-yl)pyridin-3-yl]-1,5-naphthyridin-2-yl]phenyl]acetamide]: the IC50 in data set [1] (setting [4]) amounted to 150 nM; in data set [1] (K1, read-out: PfK1 IC50), 151 nM; in data set [2], 30000 nM; in data set [3] (setting [5]), 37 nM; in data set [3] (setting [6]) it was 37.6 nM.

In the case of `CS(=O)(=O)c1cccc(-c2ccc3nccc(-c4cccc(C(=O)N5CCC(O)C5)c4)c3n2)c1` (stereo not drawn) [Compound 36, [3-[6-(3-Methylsulfonylphenyl)-1,5-naphthyridin-4-yl]phenyl]-(3-hydroxypyrrolidin-1-yl)methanone], the IC50 in data set [1] (setting [4]) turned out to be 240 nM; in data set [1] (K1, read-out: PfK1 IC50), 244 nM; in data set [2], 33000 nM; in data set [3] (setting [5]), 220 nM; in data set [3] (setting [6]), 217 nM. Also, the solubility (thermodynamic) at 20 h in the data set “physchem” (aqueous solution) came out at 50 µM (≈ 23.7 µg/mL).

Take `Cn1ccc(-c2ccc3nccc(-c4ccnc(C(F)(F)F)c4)c3n2)cc1=O` [Compound 13, 1-Methyl-4-[8-[2-(trifluoromethyl)pyridin-4-yl]-1,5-naphthyridin-2-yl]pyridin-2-one]: the IC50 in data set [3] (setting [5]) amounted to 77 nM; in data set [3] (setting [6]) it was 77.4 nM.

As to `CC(C)(O)c1ccc(-c2ccnc3ccc(-c4cccc(C(C)(C)O)c4F)nc23)cn1` [Compound 31, 2-[2-Fluoro-3-[8-[6-(2-hydroxypropan-2-yl)pyridin-3-yl]-1,5-naphthyridin-2-yl]phenyl]propan-2-ol], the IC50 in data set [1] (setting [9]) amounted to 472 nM; in data set [1] (setting [10]), 470 nM; in data set [3] (setting [7]), 2300 nM; in data set [3] (setting [8]), 2360 nM. Besides, the solubility (thermodynamic) at 20 h in “physchem” (aqueous solution) stood at 10 µM (≈ 4.17 µg/mL).

With `O[C@H]1CN(c2cc(-c3ccc4nccc(-c5ccnc(C(F)(F)F)c5)c4n3)ccn2)C[C@@H]1O` [Compound 16, (3S,4S)-1-[4-[8-[2-(Trifluoromethyl)pyridin-4-yl]-1,5-naphthyridin-2-yl]pyridin-2-yl]pyrrolidine-3,4-diol], the IC50 turned out to be 350 nM in data set [1] (setting [4]); 355 nM in data set [1] (K1, read-out: PfK1 IC50); 28000 nM in data set [2]; 51 nM in data set [3] (setting [5]); 50.8 nM in data set [3] (setting [6]).

Turning to `CC(C)(O)c1ccc(-c2ccnc3ccc(-c4cccc(CS(C)(=O)=O)c4)nc23)cn1` [Compound 29, 2-[5-[6-[3-(Methylsulfonylmethyl)phenyl]-1,5-naphthyridin-4-yl]pyridin-2-yl]propan-2-ol], the IC50 in data set [1] (setting [4]) is 1600 nM; in data set [1] (K1, read-out: PfK1 IC50) it was 1630 nM; in data set [2], greater than 50000 nM; in data set [3] (setting [5]) it was 46 nM; in data set [3] (setting [6]), 46.4 nM.

In the case of `CS(=O)(=O)c1cccc(-c2ccc3nccc(-c4ccn(CCO)c(=O)c4)c3n2)c1` [Compound 35, 1-(2-Hydroxyethyl)-4-[6-(3-methylsulfonylphenyl)-1,5-naphthyridin-4-yl]pyridin-2-one], the results for the IC50 in data set [2], in data set [3] (setting [5]) and in data set [3] (setting [6]) were greater than 50000 nM, 200 nM and 200 nM, respectively. This compound gave a thermodynamic solubility at 20 h in “physchem” (aqueous solution) of 195 µM (≈ 82.2 µg/mL).

As for `Cn1cc(-c2ccnc3ccc(-c4cccc(S(C)(=O)=O)c4)nc23)ccc1=O` [Compound 33, 1-Methyl-5-[6-(3-methylsulfonylphenyl)-1,5-naphthyridin-4-yl]pyridin-2-one], the IC50 in data set [3] (setting [7]) was found to be 96 nM; in data set [3] (setting [8]), 95.6 nM. Besides, in “physchem” (aqueous solution), the solubility (thermodynamic) at 20 h came to 55 µM (≈ 21.5 µg/mL).

For the compound `NC(=O)Cc1cccc(-c2ccc3nccc(-c4ccnc(C(F)(F)F)c4)c3n2)c1` [Compound 15, 2-[3-[8-[2-(Trifluoromethyl)pyridin-4-yl]-1,5-naphthyridin-2-yl]phenyl]acetamide], the IC50 in data set [1] (setting [4]) is 1600 nM; in data set [1] (K1, read-out: PfK1 IC50), 1620 nM; in data set [2], greater than 50000 nM; in data set [3] (setting [5]) it was 310 nM; in data set [3] (setting [6]) it was 310 nM.

For `Cn1ccc(-c2ccc3nccc(-c4ccc(C(C)(C)O)cc4)c3n2)cc1=O` [Compound 25, 4-[8-[4-(2-Hydroxypropan-2-yl)phenyl]-1,5-naphthyridin-2-yl]-1-methylpyridin-2-one], the figures for the IC50 in data set [3] (setting [7]) and in data set [3] (setting [8]) were 2100 nM and 2160 nM, respectively. The solubility (thermodynamic) at 20 h in “physchem” (aqueous solution) is 190 µM (≈ 70.6 µg/mL).

Consider `CC[C@H]1CN2CCc3cc(OC)c(OC)cc3[C@@H]2C[C@@H]1C[C@H]1NCCc2cc(OC)c(OC)cc21` [Emetine, reference compound], for which, in data set [2], the IC50 was less than 3 nM.

`CC(C)(O)c1ccc(-c2ccnc3ccc(-c4ccnc(N5C[C@H](O)[C@@H](O)C5)c4)nc23)cn1` [Compound 28, (3S,4S)-1-[4-[8-[6-(2-Hydroxypropan-2-yl)pyridin-3-yl]-1,5-naphthyridin-2-yl]pyridin-2-yl]pyrrolidine-3,4-diol]: the IC50 in data set [1] (setting [9]) was 52.7 nM; in data set [1] (setting [10]) it was 53 nM; in data set [2] (one biological replicate), greater than 50000 nM; in data set [3] (setting [7]), 43 nM; in data set [3] (setting [8]) it was 42.9 nM. The same compound showed a solubility (thermodynamic) at 20 h in “physchem” (aqueous solution) of 20 µM (≈ 8.87 µg/mL).

The IC50 is the concentration that gives 50% inhibition. The solubility (thermodynamic) is the concentration in solution at equilibrium with solid.
